Where two headings read alike, the source gives them in different places.
Key:
Test in all cases: TGFα-shedding assay-based GPCR screening with chimeric Gα subunit proteins
Assay type in all cases: cell-based
Conditions in all cases: 10µM, Favipiravir 100μM
[1] = target: T1, 348 GPCRs (Homo sapiens, UniProt Q8NGU9)
T1 construct: expressed in transfected cells; host or cells: HEK293A

[2] = target: T2, 348 GPCRs (Homo sapiens, UniProt P51686)
T2 construct: expressed in transfected cells; host or cells: HEK293A
T2 sequence (P51686 1-369): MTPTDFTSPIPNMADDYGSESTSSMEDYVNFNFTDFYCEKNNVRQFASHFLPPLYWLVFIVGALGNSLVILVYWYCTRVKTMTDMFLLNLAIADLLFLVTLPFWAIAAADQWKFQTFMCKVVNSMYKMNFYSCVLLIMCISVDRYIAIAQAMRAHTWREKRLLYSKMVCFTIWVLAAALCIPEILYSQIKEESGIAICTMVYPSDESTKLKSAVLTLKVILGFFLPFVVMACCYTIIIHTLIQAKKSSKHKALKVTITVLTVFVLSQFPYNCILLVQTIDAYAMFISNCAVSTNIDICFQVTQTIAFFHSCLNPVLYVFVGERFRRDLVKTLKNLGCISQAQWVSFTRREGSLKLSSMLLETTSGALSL

[3] = target: T3, 348 GPCRs (Homo sapiens, UniProt P04001)
T3 construct: expressed in transfected cells; host or cells: HEK293A
T3 sequence (P04001 1-364): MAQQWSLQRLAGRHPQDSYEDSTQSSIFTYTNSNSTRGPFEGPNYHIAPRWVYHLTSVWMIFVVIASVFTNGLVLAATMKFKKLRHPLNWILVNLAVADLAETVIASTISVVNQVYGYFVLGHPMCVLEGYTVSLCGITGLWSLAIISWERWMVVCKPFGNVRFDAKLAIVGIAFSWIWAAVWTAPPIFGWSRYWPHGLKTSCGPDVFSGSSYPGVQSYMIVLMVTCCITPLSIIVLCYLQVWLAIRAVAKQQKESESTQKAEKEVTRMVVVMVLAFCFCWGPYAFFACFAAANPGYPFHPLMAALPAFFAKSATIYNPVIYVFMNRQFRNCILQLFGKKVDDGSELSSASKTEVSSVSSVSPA

[4] = target: T4, 348 GPCRs (Homo sapiens, UniProt P25090)
T4 sequence (P25090 1-351): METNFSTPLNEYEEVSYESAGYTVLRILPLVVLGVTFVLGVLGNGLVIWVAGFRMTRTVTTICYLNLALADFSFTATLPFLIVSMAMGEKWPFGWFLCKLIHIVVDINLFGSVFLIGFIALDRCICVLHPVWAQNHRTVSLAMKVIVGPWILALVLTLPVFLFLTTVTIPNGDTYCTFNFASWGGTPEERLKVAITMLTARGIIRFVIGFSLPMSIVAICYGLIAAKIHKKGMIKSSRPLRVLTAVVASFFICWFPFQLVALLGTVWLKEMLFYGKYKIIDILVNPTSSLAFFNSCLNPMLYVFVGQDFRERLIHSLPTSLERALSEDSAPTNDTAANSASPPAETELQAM

[5] = target: T5, 348 GPCRs (Homo sapiens, UniProt P48039)
T5 construct: expressed in transfected cells; host or cells: HEK293A
T5 sequence (P48039 whole entry): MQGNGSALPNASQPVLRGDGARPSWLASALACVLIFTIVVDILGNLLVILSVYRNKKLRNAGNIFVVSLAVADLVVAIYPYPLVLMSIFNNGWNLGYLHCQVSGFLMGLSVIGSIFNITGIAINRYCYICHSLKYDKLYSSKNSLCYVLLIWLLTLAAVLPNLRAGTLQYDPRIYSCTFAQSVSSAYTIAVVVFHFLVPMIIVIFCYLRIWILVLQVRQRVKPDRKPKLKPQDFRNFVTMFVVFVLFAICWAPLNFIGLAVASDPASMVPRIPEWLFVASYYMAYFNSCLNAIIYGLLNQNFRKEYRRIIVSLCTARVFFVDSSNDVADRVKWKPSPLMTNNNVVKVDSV

[6] = target: T6, 348 GPCRs (Homo sapiens, UniProt P16473)
T6 construct: expressed in transfected cells; host or cells: HEK293A
T6 sequence (P16473 21-764): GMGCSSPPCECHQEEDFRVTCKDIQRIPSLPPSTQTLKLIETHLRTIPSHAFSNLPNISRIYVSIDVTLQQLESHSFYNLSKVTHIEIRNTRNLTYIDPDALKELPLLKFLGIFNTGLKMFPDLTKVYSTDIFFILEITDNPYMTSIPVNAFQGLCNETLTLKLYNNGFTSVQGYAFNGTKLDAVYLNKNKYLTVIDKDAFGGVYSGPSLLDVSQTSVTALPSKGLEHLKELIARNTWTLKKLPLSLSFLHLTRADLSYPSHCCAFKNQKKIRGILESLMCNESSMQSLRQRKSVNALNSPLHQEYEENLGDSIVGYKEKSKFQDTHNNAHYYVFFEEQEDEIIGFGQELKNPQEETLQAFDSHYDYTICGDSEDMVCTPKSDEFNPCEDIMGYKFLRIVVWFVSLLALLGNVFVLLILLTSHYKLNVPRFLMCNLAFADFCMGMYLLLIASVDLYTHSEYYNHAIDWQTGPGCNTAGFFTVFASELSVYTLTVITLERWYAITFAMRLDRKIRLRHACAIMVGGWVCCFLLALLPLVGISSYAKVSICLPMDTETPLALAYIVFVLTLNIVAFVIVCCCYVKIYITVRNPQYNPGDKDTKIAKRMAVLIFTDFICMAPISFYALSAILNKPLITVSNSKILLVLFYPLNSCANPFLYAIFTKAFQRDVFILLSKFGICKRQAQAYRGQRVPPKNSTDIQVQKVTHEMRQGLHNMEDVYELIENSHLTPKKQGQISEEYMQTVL

[7] = target: T7, 348 GPCRs (Homo sapiens, UniProt Q86SP6)
T7 construct: expressed in transfected cells; host or cells: HEK293A
T7 sequence (Q86SP6 1-731): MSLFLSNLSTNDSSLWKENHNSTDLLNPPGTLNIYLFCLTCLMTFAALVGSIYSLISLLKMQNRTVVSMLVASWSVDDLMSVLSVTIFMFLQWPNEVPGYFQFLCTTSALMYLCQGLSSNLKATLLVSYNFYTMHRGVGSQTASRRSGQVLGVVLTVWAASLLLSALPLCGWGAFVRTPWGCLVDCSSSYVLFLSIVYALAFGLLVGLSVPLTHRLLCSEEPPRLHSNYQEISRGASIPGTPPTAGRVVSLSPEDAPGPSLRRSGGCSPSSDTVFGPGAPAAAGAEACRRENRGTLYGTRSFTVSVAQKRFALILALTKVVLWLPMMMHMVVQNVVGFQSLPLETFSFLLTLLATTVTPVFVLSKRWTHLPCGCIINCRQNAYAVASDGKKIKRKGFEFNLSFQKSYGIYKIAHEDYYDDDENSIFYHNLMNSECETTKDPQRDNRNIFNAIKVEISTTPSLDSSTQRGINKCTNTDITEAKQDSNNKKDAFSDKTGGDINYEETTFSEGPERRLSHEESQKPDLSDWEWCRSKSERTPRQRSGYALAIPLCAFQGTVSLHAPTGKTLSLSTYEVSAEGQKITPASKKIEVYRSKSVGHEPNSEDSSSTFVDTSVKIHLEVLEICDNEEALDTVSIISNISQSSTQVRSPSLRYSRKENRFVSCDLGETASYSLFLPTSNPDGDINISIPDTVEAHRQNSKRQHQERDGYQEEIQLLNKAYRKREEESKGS

[8] = target: T8, 348 GPCRs (Homo sapiens, UniProt Q9Y5N1)
T8 construct: expressed in transfected cells; host or cells: HEK293A
T8 sequence (Q9Y5N1 whole entry): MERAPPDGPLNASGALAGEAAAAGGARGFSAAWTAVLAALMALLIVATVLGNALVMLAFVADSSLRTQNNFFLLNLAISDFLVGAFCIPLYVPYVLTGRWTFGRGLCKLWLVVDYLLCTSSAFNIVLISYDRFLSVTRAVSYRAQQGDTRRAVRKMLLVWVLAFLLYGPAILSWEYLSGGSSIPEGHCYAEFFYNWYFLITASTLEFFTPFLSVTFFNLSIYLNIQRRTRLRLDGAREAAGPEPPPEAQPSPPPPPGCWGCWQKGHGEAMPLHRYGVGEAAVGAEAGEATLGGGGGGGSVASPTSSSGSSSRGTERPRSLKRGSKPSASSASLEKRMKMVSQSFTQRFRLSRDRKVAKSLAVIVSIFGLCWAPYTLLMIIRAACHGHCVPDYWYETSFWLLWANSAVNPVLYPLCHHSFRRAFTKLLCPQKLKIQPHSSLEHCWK

[9] = read-out: % GPCR activation compared to TPA, GPR150 (G protein-coupled receptor 150)
[10] = read-out: % GPCR activation compared to TPA, CCR9 (chemokine (C-C motif) receptor 9)
[11] = read-out: % GPCR activation compared to TPA, OPN1MW (opsin 1 (cone pigments), medium-wave-sensitive)
[12] = read-out: % GPCR activation compared to TPA, FPR2 (formyl peptide receptor 2)
[13] = read-out: % GPCR activation compared to TPA, MT1R (melatonin receptor type 1A)
[14] = read-out: % GPCR activation compared to TPA, TSHR (thyroid stimulating hormone receptor)
[15] = read-out: % GPCR activation compared to TPA, GPR149 (G protein-coupled receptor 149)
[16] = read-out: % GPCR activation compared to TPA, H3 (histamine receptor H3)
[17] = GPR150 (G protein-coupled receptor 150), read-out: % GPCR activation compared to TPA
[18] = CCR9 (chemokine (C-C motif) receptor 9), read-out: % GPCR activation compared to TPA
[19] = OPN1MW (opsin 1 (cone pigments), medium-wave-sensitive), read-out: % GPCR activation compared to TPA
[20] = FPR2 (formyl peptide receptor 2), read-out: % GPCR activation compared to TPA
[21] = MT1R (melatonin receptor type 1A), read-out: % GPCR activation compared to TPA
[22] = TSHR (thyroid stimulating hormone receptor), read-out: % GPCR activation compared to TPA
[23] = GPR149 (G protein-coupled receptor 149), read-out: % GPCR activation compared to TPA
[24] = H3 (histamine receptor H3), read-out: % GPCR activation compared to TPA

T1 sequence (Q8NGU9 whole entry): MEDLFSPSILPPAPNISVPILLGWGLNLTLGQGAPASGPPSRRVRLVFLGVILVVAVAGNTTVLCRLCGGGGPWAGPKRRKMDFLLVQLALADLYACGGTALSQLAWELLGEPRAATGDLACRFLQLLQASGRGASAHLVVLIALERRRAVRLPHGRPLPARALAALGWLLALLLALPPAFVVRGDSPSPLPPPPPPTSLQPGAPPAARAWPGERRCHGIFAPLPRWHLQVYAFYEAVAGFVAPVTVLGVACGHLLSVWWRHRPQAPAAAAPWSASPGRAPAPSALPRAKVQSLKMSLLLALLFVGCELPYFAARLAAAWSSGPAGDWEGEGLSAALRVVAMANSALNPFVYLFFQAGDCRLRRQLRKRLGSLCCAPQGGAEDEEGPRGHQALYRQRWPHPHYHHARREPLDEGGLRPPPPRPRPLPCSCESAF

| SMILES | activation at 100 µM [1, 9] | activation at 10 µM [2, 10] | activation at 100 µM [3, 11] | activation at 100 µM [4, 12] | activation at 10 µM [5, 13] | activation at 10 µM [6, 14] | activation at 100 µM [7, 15] | activation at 100 µM [8, 16] | activation at 100 µM [1, 17] | activation at 10 µM [2, 18] | activation at 100 µM [3, 19] | activation at 100 µM [4, 20] | activation at 10 µM [5, 21] | activation at 10 µM [6, 22] | activation at 100 µM [7, 23] | activation at 100 µM [8, 24] |
| --- | --- | --- | --- | --- | --- | --- | --- | --- | --- | --- | --- | --- | --- | --- | --- | --- |
| CC(C)OC(=O)[C@H](C)N[P@](=O)(OC[C@H]1O[C@@H](n2ccc(=O)[nH]c2=O)[C@](C)(F)[C@@H]1O)Oc1ccccc1 [sofosbuvir] | 0.239% | -0.977% | -1.41% | -1.57% | -4.49% | -0.338% | -7.06% | -2.02% |  |  |  |  |  |  |  |  |
| CC(C)C(=O)OC[C@H]1O[C@@H](n2ccc(NO)nc2=O)[C@H](O)[C@@H]1O [molnupiravir] |  |  |  |  |  |  |  |  | -6.13% | -1.34% | -0.857% | -1.5% | -4.07% | -0.502% | -41.7% | -0.295% |
| NC(=O)c1nc(F)cnc1O [favipiravir, 6-fluoro-3-hydroxy-2-pyrazinecarboxamide] |  |  |  |  |  |  |  |  | -0.462% | 2.47% | -0.549% | -3.31% | -1.27% | -1.11% | 0.0439% | 0.315% |
| N#C[C@@]1(c2ccc3c(N)ncnn23)O[C@H](CO)[C@@H](O)[C@H]1O [GS441524] |  |  |  |  |  |  |  |  | 0.708% | 2.4% | -1.4% | -0.97% | 0.391% | -1.39% | -0.814% | 0.59% |
| CCC(CC)COC(=O)[C@H](C)N[P@](=O)(OC[C@H]1O[C@@](C#N)(c2ccc3c(N)ncnn23)[C@H](O)[C@@H]1O)Oc1ccccc1 [remdesivir] | 6.96% | -0.902% | 1.48% | -0.745% | 0.542% | -3.29% | -0.636% | 0.0878% |  |  |  |  |  |  |  |  |

From paper PMC10175918 (Communications Biology, 2023)
